Test results taken from patent US5216124A, “Substituted cyclic tetrapeptides” (G. D. Searle & Co., priority 1991, dated 1993).
Structures can show the parent of a compound that is named as a salt. Positions of bridges follow the written chain, without caps; N, C: chain ends. Non-standard residues stand in square brackets, D forms with d. Residues, ends and D or L forms follow the SMILES beside them. Phe(4-F) = N[C@@H](Cc1ccc(F)cc1)C(=O)O; Dmt = Cc1cc(O)cc(C)c1C[C@H](N)C(=O)O; NMeCha = CN[C@@H](CC1CCCCC1)C(=O)O; NMeF = CN[C@@H](Cc1ccccc1)C(=O)O; 2Thi = N[C@@H](Cc1cccs1)C(=O)O; Cha = N[C@@H](CC1CCCCC1)C(=O)O; dPen = CC(C)(S)[C@@H](N)C(=O)O

Columns and labels:
[1] = target: δ opioid receptors (Rattus norvegicus, UniProt P33533); test: Opiate Binding Assay, displacement of 3[H]-DSLET; settings: ratio of mean IC50 μ to δ, above 1.0 = more specific for δ
Sequence of δ opioid receptors (P33533 whole entry): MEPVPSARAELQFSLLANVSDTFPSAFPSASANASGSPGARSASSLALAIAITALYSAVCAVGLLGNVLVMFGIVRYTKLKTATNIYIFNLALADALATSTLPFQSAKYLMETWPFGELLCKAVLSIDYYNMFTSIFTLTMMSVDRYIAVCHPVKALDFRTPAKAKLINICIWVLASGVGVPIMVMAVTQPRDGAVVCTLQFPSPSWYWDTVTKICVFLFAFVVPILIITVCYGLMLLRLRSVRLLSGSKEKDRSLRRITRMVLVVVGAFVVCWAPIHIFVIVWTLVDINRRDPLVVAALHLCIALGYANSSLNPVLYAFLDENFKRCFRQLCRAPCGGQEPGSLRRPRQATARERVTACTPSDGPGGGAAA

[2] = tested on: CD Charles River mice; test: Writhing Assay (PBQ-induced writhing); format: in vivo, mouse; settings: for number of mice out of ten in which peptide was active, Intragastric: 10 mg/kg i.g., PBQ i.p. 15 min after dosing; for number of mice out of ten in which peptide was active, Subcutaneous: 10 mg/kg s.c., PBQ i.p. 25 min after dosing
Text: The "Writhing Assay" is one of the most widely-used experimental procedures for measuring the analgesic activity of different narcotic and nonnarcotic analgesic agents, and involves the continuous, chemically-induced pain of visceral origin to an animal, such as a mouse or rat. [Gyires et al., Arch. int. Pharmacodyn, 267, 131-140 (1984); C. Vander Wende et al., Fed. Proc., 15, 494 (1956); Koster et al., Fed. Proc., 18, 412 (1959); and Witken et al., J. Pharmacol. Exp. Ther., 133, 400-408 (1961). ] Chemicals which may be used to induce this pain include phenylbenzoquinone (PBQ) and acetic acid. As a result of the chemical irritation to the animal, a characteristic stretching and writhing of the animal (dorsiflexion of the animal's back, extension of its hindlimbs an the strong contraction of its abdominal musculature) will generally occur. […] Drugs which reduce the number of writhes of the animal appear to restore the normal nociceptive threshold of the animal.
This assay was conducted generally in the manner described by R. I. Taber, "Predictive Value of Analgesic Assays in Mice and Rats,"Advances in Biochemical Psychopharmacology, 8, 191 (1974). The Methyl Ester Tetrapeptide and Test Tetrapeptides Nos. 1, 3, 4, 5, 6, 7, 8 and 9 were tested in this assay.
Two hundred CD Charles River mice, weighing 20 to 30 grams were used in this assay.
Twenty-five minutes after subcutaneous administration, and fifteen minutes after intragastric administration, to the mice of 10 mg per kilogram of body weight of either a Test Tetrapeptide or the Methyl Ester Tetrapeptide, […] of body weight of a 0.025% w/v solution of PBQ was injected intraperitoneally into each mouse. Some mice were given saline in place of a Test Tetrapeptide or the Methyl Ester Tetrapeptide, and were used as a control group.
Five minutes later, each mouse was individually placed into a glass beaker for observation, and the number of writhes occurring during the following ten-minute period was counted.
A tetrapeptide compound was considered to be "active" (to have produced analgesia in a mouse) if, in accordance with the conditions set forth above, and under the test criteria employed for this assay, after the administration of 10 mg per kilogram of body weight of the tetrapeptide to the mouse, the number of writhes elicited by a mouse injected with PBQ was equal to, or less than, one-half the median number of writhes recorded for the saline-treated control group of mice that day, as described by R. I. Taber, supra.
The standard initial screening dose of a compound employed in this assay was 10 mg per kilogram (mpk) of body weight for both routes of administration. If this initial screening dose of the tetrapeptide produced analgesia in seven of ten mice, then the effect of additional doses of the tetrapeptide on the writhing response was evaluated, and then the ED50 value (that dose of a Test Tetrapeptide or the Methyl Ester Tetrapeptide which produced analgesia in 50% of the mice to which the tetrapeptide was administered) was generally calculated. A maximum likelihood function was used to determine the ED50 value. (The slopes of the dose-response curves for all tetrapeptides analyzed were compared as described by Tallarida and Murray, Manual of Pharmacologic Calculations, Page 11 (Springer Verlag, N.Y., 1981)).

SMILES | Mean IC50 Value μ/δ Ratio [1] | number of mice out of ten in which peptide was active, Subcutaneous [2] | Mean IC50 Value μ/δ Ratio ([1]; monohydrochloride) | number of mice out of ten in which peptide was active, Intragastric [2] | also measured
Cc1cc(O)ccc1CC(N)C(=O)N[C@@H]1CSSC(C)(C)[C@H](C(=O)O)NC(=O)[C@H](Cc2ccccc2)NC1=O (single isomer, unassigned) [Example 5 (Diastereomer A)] | 48 | – | – | – | –
Cc1cc(O)ccc1CC(N)C(=O)N[C@@H]1CSSC(C)(C)[C@H](C(=O)O)NC(=O)[C@H](Cc2ccccc2)NC1=O (single isomer, unassigned) [Example 5 (Diastereomer B)] | 15 | – | – | – | –
COC(=O)[C@@H]1NC(=O)[C@H](Cc2ccccc2)NC(=O)C(NC(=O)[C@@H](N)Cc2c(C)cc(O)cc2C)CCSSC1(C)C (single isomer, unassigned) [Example 72, 2,6-dimethyl-L-tyrosylhomocysteinyl-L-phenylalanyl-3-mercapto-D-valine, cyclic (2→4)-disulfide, methyl ester, monohydrochloride] | – | 6/10 | 0.4 | – | number of mice out of ten in which peptide was active, Intragastric ([2]; listed as Test Tetrapeptide No. 4, monohydrochloride, 10 mg/kg): 1/10
COC(=O)[C@@H]1NC(=O)[C@H](Cc2ccccc2)NC(=O)C(NC(=O)[C@@H](N)Cc2c(C)cc(O)cc2C)CCSSC1(C)C (single isomer, unassigned) [Example 73, 2,6-dimethyl-L-tyrosylhomocysteinyl-L-phenylalanyl-3-mercapto-D-valine, cyclic (2→4)-disulfide, methyl ester, monohydrochloride] | – | 6/10 | 0.10 | – | number of mice out of ten in which peptide was active, Intragastric ([2]; listed as Test Tetrapeptide No. 5, monohydrochloride, 10 mg/kg): 5/10
Cc1ccc(CC(N)C(=O)N[C@@H]2CSSC(C)(C)[C@H](C(=O)O)NC(=O)[C@H](Cc3ccccc3)NC2=O)c(C)c1O (single isomer, unassigned) [Example 81 (Diastereomer A), 3-hydroxy-2,4-dimethylphenylalanyl-D-cysteinyl-L-phenylalanyl-3-mercapto-D-valine, cyclic (2→4)-disulfide, monohydrochloride] | – | – | 0.1 | – | –
Cc1ccc(CC(N)C(=O)N[C@@H]2CSSC(C)(C)[C@H](C(=O)O)NC(=O)[C@H](Cc3ccccc3)NC2=O)c(C)c1O (single isomer, unassigned) [Example 81 (Diastereomer B), 3-hydroxy-2,4-dimethylphenylalanyl-D-cysteinyl-L-phenylalanyl-3-mercapto-D-valine, cyclic (2→4)-disulfide, monohydrochloride] | – | – | 19 | – | –
Cc1cc(O)c(C)c(C)c1CC(N)C(=O)N[C@@H]1CSSC(C)(C)[C@H](C(=O)O)NC(=O)[C@H](Cc2ccccc2)NC1=O (single isomer, unassigned) [Example 82 (Diastereomer B), 2,3,6-trimethyltyrosyl-D-cysteinyl-L-phenylalanyl-3-mercapto-D-valine, cyclic (2→4)-disulfide, monohydrochloride] | 81 | – | – | – | –
COC(=O)[C@@H]1NC(=O)[C@H](Cc2ccccc2)N(C)C(=O)[C@H](NC(=O)[C@@H](N)Cc2c(C)cc(O)cc2C)CSSC1(C)C [Example 39, 2,6-dimethyl-L-tyrosyl-D-cysteinyl-N-methyl-L-phenylalanyl-3-mercapto-D-valine, cyclic (2→4)-disulfide, methyl ester, monohydrochloride] (H-[Dmt][dC][NMeF][dPen]-OMe; disulfide 2-4) | 6.0 | 4/10 | – | 5/10 | –
COC(=O)[C@@H]1NC(=O)[C@H](CC2CCCCC2)NC(=O)[C@H](NC(=O)[C@@H](N)Cc2c(C)cc(O)cc2C)CSSC1(C)C [Example 46, 2,6-dimethyl-L-tyrosyl-D-cysteinyl-3-cyclohexyl-L-alanyl-3-mercapto-D-valine, cyclic (2→4)-disulfide, methyl ester, monohydrochloride] (H-[Dmt][dC][Cha][dPen]-OMe; disulfide 2-4) | 0.6 | 5/10 | – | 4/10 | –
COC(=O)[C@@H]1NC(=O)[C@H](CC2CCCCC2)N(C)C(=O)[C@H](NC(=O)[C@@H](N)Cc2c(C)cc(O)cc2C)CSSC1(C)C [Example 53, 2,6-dimethyl-L-tyrosyl-D-cysteinyl-3-cyclohexyl-N-methyl-L-alanyl-3-mercapto-D-valine, cyclic (2→4)-disulfide, methyl ester, monohydrochloride] (H-[Dmt][dC][NMeCha][dPen]-OMe; disulfide 2-4) | 12 | 3/10 | – | 3/10 | –
COC(=O)[C@@H]1NC(=O)[C@H](Cc2cccs2)NC(=O)[C@H](NC(=O)[C@@H](N)Cc2c(C)cc(O)cc2C)CSSC1(C)C [Example 60, 2,6-dimethyl-L-tyrosyl-D-cysteinyl-3-(2-thienyl)-L-alanyl-3-mercapto-D-valine, cyclic (2→4)-disulfide, methyl ester, monohydrochloride] (H-[Dmt][dC][2Thi][dPen]-OMe; disulfide 2-4) | 1.4 | – | – | – | –
COC(=O)[C@@H]1NC(=O)[C@H](Cc2ccc(F)cc2)NC(=O)[C@H](NC(=O)[C@@H](N)Cc2c(C)cc(O)cc2C)CSSC1(C)C [Example 67, 2,6-dimethyl-L-tyrosyl-D-cysteinyl-4-fluoro-L-phenylalanyl-3-mercapto-D-valine, cyclic (2→4)-disulfide, methyl ester, monohydrochloride] (H-[Dmt][dC][Phe(4-F)][dPen]-OMe; disulfide 2-4) | 2.4 | 2/10 | – | 1/10 | –
